According to patent publication US4564619A, “Carbostyril derivative” (Otsuka Pharmaceutical Co., Ltd., priority 1982, dated 1986):

Assays:
[1] = system: ADP-induced aggregation in rabbit platelets; experiment: Inhibition of ADP-induced platelet aggregation in rabbit platelet rich plasma; type: cell-based; settings: Oryctolagus cuniculus, read-out: Inhibition rate of ADP-induced aggregation; for inhibition at 100 µM (stock): Concentration of the test compound solution 10^-4 mole; for inhibition at 10 µM (stock): Concentration of the test compound solution 10^-5 mole
Description: (§1) The platelet aggregation inhibitory effect was measured by using a Platelet Aggregation Tracer Model PAT-6M (manufactured by Nikoh Bio-Science Co., Ltd.) by a method according to Kimura, et al., [IGAKU-NO-AYUMI (Progress in Medicine), Vol. 114, No. 9, pp. 718-727, Aug. 30, 1980, and Nature, pp. 927-929, 1962].
(§2) The blood sample used for the test was a 1:9 (by volume) mixture of "3.8%-CITRATE"® (a registered trademark for 3.8%-sodium citrate, manufactured by Green Cross Corp.) and whole blood collected from rabbits. Said sample was subjected to 10-minute centrifugal separation at 1,000 r.p.m. (200xG) to obtain a platelet rich plasma (PRP). The PRP thus obtained was separated, and the remaining blood sample was further subjected to 15-minute centrifugal separation at 3,000 r.p.m. (2,000xG) to obtain a platelet poor plasma (PPP).
(§3) The number of platelets in the PRP was counted by the Brecher-Clonkite Method, and the PRP was diluted with the PPP to prepare a PRP sample with a platelet concentration of 600,000/microliter to prepare for an adenosine diphosphate (ADP)-induced aggregation test, and a collagen-induced aggregation test. 0.2 Milliliter of the PRP sample was added to 2 microliters of a solution of a test compound of predetermined concentration and this mixture was placed in a 37° C. thermostat for one minute. Then 20 microliters of an ADP or collagen solution was added to the mixture. In this test, the ADP solution was prepared by adjustment to a concentration of 7.5×10^-5 M by using Auren-Beronal buffer solution (pH 7.35). Further, the collagen solution was prepared by adjustment to a concentration of 200 micrograms/ml by using collagen reagent of "Holm"® (manufactured by Hormon-Chemie Munchen, GmbH.) which was diluted wih a physiological saline solution.
(§4) The transmittance of the resultant test mixture was determined and the change of transmittance was recorded by using the aggregometer at a stirrer speed of 1,100 r.p.m.
(§5) The platelet aggregation inhibitory effect of the test compound was measured in terms of inhibition rate (%) with respect to the aggregation rate of the controls. The aggregation rate was calculated from the following formula.
(§6) Aggregation rate=[(c-a)/(b-a)]×100
(§7) The percent inhibition is calculated from the following formula.
(§8) Inhibition rate (%)=[(A-B)/A]×100
(§9) The inhibitory effect of the test compounds on collagen-induced aggregation in rabbit platelets is shown in Table 1, similarly such effect on ADP-induced aggregation in rabbit platelets is shown in Table 2.

[2] = system: collagen-induced aggregation in rabbit platelets; experiment: Inhibition of collagen-induced platelet aggregation in rabbit platelet rich plasma; type: cell-based; settings: Oryctolagus cuniculus, read-out: Inhibition rate of collagen-induced aggregation; for inhibition at 100 µM (stock): Concentration of the test compound solution 10^-4 mole; for inhibition at 10 µM (stock): Concentration of the test compound solution 10^-5 mole
Description: as §1, §2, §3, §4, §5, §6, §7, §8, §9

[3] = Change of blood pressure, intravenous administration, anesthetized dog; type: in vivo; set-up: unit not given here; settings: femoral artery
Description: The change of blood flow in coronary artery and the change of blood pressure were measured by a method according to Yakura et al., [Japan Journal of Pharmacology, Vol. 57, pages 380-391 (1961)] and according to Taira, et al. [Clin. Exp. Pharmacol. Physiol., Vol. 6, pages 301-316, (1976)].
An adult bastard dog of either sex weighing 8-13 kg was anesthetized with sodium pentobarbital at the rate of 30 mg/kg by intraveneous administration, then the dog was fixed in supination and was theracotomized under a condition of forced breathing. After another intraveneous administration of sodium heparin at the rate of 500 U/kg, 100 U/kg per hour, the dog was subjected to the following experiments.
(2) Intraveneous administration
Morawitz's cannula was cannulated to the coronary sinus venosus through the auricula dextra cordis, and the blood in vein was circulated to the right carotid. The blood flow was measured by an electromagnetic blood flow meter equipped with a blood flow observation probe in the extracorporeal circulation path of the vein. The systolic force was measured by a systolometer (pick-up) placed at the left ventricle of heart, the blood pressure was measured from the femoral artery, and the heart rate was measured from the pulse. A compound to be tested was administered through the cannula being cannulated in femoral vein. The increased amount of the blood flow in coronary artery after the administration of the test compound is shown in Table 4, also the change of blood pressure is shown in Table 5.

Row | Compound | inhibition at 100 µM (stock) [1] | inhibition at 100 µM (stock) [2] | Change of blood pressure ([3]; 3 micrograms/kg) | Change of blood pressure ([3]; 10 micrograms/kg) | Change of blood pressure ([3]; 30 micrograms/kg) | Change of blood pressure ([3]; 100 micrograms/kg) | inhibition at 10 µM (stock) [1] | inhibition at 10 µM (stock) [2] | Change of blood pressure ([3]; 300 micrograms/kg)
1 | COC(=O)C1=C(C)NC(C)=C(C(=O)OCCCCOc2ccc3c(c2)CCC(=O)N3)C1c1ccccc1Cl (centres unmarked) [Compound 27, 6-{4-[2,6-Dimethyl-5-methoxycarbonyl-4-(2-chlorophenyl)-1,4-dihydropyridin-3-carboxy]-butoxy}-3,4-dihydrocarbostyril] | 42% | 61% | -4 | -10 | -27 | -52 | – | – | –
2 | COC(=O)C1=C(C)NC(C)=C(C(=O)OCCCCOc2ccc3c(c2)CCC(=O)N3)C1c1ccccc1SC (centres unmarked) [Compound 26, 6-{4-[2,6-Dimethyl-5-methoxycarbonyl-4-(2-methylthiophenyl)-1,4-dihydropyridin-3-carboxy]butoxy}-3,4-dihydrocarbostyril] | 87% | 100% | – | -6 | -10 | -21 | 22% | 19% | -42
3 | COC(=O)C1=C(C)NC(C)=C(C(=O)OCCCOc2ccc3[nH]c(=O)cc(C)c3c2)C1c1cccc([N+](=O)[O-])c1 (centres unmarked) [Compound 38, 4-Methyl-6-{3-[2,6-dimethyl-5-methoxycarbonyl-4-(3-nitrophenyl)-1,4-dihydropyridin-3-carboxy]propoxy}carbostyril] | 31% | 45% | – | -2 | -10 | -35 | – | – | –
4 | C=CCOc1ccc(OCCCCOC(=O)C2=C(C)NC(C)=C(C(=O)OC)C2c2cccc([N+](=O)[O-])c2)c2c1NC(=O)CC2 (centres unmarked) [Compound 19, 5-{4-[2,6-Dimethyl-5-methoxycarbonyl-4-(3-nitrophenyl)-1,4-dihydropyridin-3-carboxy]-butoxy}-8-alloyloxy-3,4-dihydrocarbostyril] | 17% | 17% | -22 | -34 | -44 | -55 | – | – | –
5 | COC(=O)C1=C(C)NC(C)=C(C(=O)OCCCCOc2ccc3c(c2)CCC(=O)N3)C1c1ccccc1C(=O)OC (centres unmarked) [Compound 30, 6-{4-[2,6-Dimethyl-5-methoxycarbonyl-4-(2-methoxycarbonyl)-1,4-dihydropyridin-3-carboxy]butoxy}-3,4-dihydrocarbostyril] | 89% | 100% | – | -1 | -16 | -38 | – | 3% | –
6 | COC(=O)C1=C(C)NC(C)=C(C(=O)OCCCCOc2ccc3[nH]c(=O)ccc3c2)C1c1cccc([N+](=O)[O-])c1 (centres unmarked) [Compound 15, 6-{4-[2,6-Dimethyl-5-methoxycarbonyl-4-(3-nitrophenyl)-1,4-dihydropyridin-3-carboxy]-butoxy}carbostyril] | 100% | 100% | – | – | -3 | -9 | 20% | 26% | -27
7 | COC(=O)C1=C(C)NC(C)=C(C(=O)OCCCOc2cccc3[nH]c(=O)ccc23)C1c1cccc([N+](=O)[O-])c1 (centres unmarked) [Compound 22, 5-{3-[2,6-Dimethyl-5-methoxycarbonyl-4-(3-nitrophenyl)-1,4-dihydropyridin-3-carboxy]-propoxy}carbostyril] | 62% | 100% | – | -2 | -8 | -18 | 13% | 21% | -36
8 | COC(=O)C1=C(C)NC(C)=C(C(=O)OCCCCOc2ccc3[nH]c(=O)ccc3c2)C1c1ccccc1C(F)(F)F (centres unmarked) [Compound 24, 6-{4-[2,6-Dimethyl-5-methoxycarbonyl-4-(2-trifluoromethylphenyl)-1,4-dihydropyridin-3-carboxy]butoxy}carbostyril] | 100% | 100% | – | -6 | -18 | -30 | 62% | 30% | -44
9 | COC(=O)C1=C(C)NC(C)=C(C(=O)OCCCCOc2cccc3[nH]c(=O)ccc23)C1c1cccc([N+](=O)[O-])c1 (centres unmarked) [Compound 18, 5-{4-[2,6-Dimethyl-5-methoxycarbonyl-4-(3-nitrophenyl)-1,4-dihydropyridin-3-carboxy]-butoxy}carbostyril] | 48% | 100% | – | -5 | -19 | -33 | 15% | 3% | -43
10 | COC(=O)C1=C(C)NC(C)=C(C(=O)OCC(COc2ccc3[nH]c(=O)ccc3c2)OC(C)=O)C1c1cccc([N+](=O)[O-])c1 (centres unmarked) [Compound 43, 6-{3-[2,6-Dimethyl-5-methoxycarbonyl-4-(3-nitrophenyl)-1,4-dihydropyridin-3-carboxy]-2-acetoxypropoxy}carbostyril] | 100% | 100% | – | – | -4 | -16 | 100% | 100% | -23
11 | COC(=O)C1=C(C)NC(C)=C(C(=O)OCCCOc2ccc3[nH]c(=O)ccc3c2)C1c1ccccc1 (centres unmarked) [Compound 44, 6-[3-(2,6-Dimethyl-5-methoxycarbonyl-4-phenyl-1,4-dihydropyridin-3-carboxy)propoxy]-carbostyril] | 100% | 100% | – | -1 | -3 | -6 | 20% | 25% | -52
